According to patent publication US7442855B2, “Insecticidal plant cyclotide with activity against Homopteran insects” (E. I. du Pont De Nemours and Company, priority 2004, dated 2008):
Where a SMILES comes first, the peptide text is derived from it. Bridges are numbered along the chain shown (N, C = ends).

What was measured:
Aphis glycines = assay: Dose response insect-feeding assay for E5 against Aphis glycines (sucrose/parafilm membrane, mortality scored after 72 hours); type: in vivo; settings: adult insects, two replicates
Procedure: (§1) To test for the insecticidal activity of cyclotide E5 against the target homopteran pests, the lyophilized fractionated samples were placed in 96-well microtiter plates, resuspended in H2O and added to a 20% sucrose solution as detailed below. Parafilm was stretched to just short of its breaking point and used to seal the sucrose/sample reservoir. Adult insects were then added on top of the membrane in a second chamber such that the base of the insect enclosure was the parafilm membrane. The top of the insect chamber was then sealed with plastic wrap and punctured for air exchange. The number of insects feeding from each well was determined. The assay was scored after 72 hours and nsecticidal activity was measured based on insect mortality.
(§2) Specifically, for the dose-response assay results shown in Tables 1 and 2, lyophilized RP-HPLC-pure sample was resuspended in 300 μL H2O and added to 20% sucrose in the following volumes: 60, 45, 25, 10, and 5 μL. Two replicates per dose were prepared, including two negative controls. After 72 hours, the wells were scored for insect mortality.

Peregrinus maidis = assay: Dose response insect-feeding assay for E5 against Peregrinus maidis (sucrose/parafilm membrane, mortality scored after 72 hours); type: in vivo; settings: adult insects, two replicates
Procedure: as §1, §2

CC[C@H](C)[C@@H]1NC(=O)[C@H](Cc2ccc(O)cc2)NC(=O)[C@H](C(C)C)NC(=O)[C@@H]2CSSC[C@@H]3NC(=O)[C@H](CCCCN)NC(=O)[C@@H]4CSSC[C@H](NC(=O)[C@@H]5CCCN5C(=O)[C@H]([C@@H](C)CC)NC(=O)[C@H](CCCCN)NC(=O)[C@H](CC(N)=O)NC(=O)[C@H](Cc5ccc(O)cc5)NC(=O)[C@H](CSSC[C@H](NC(=O)CNC1=O)C(=O)N[C@@H]([C@@H](C)O)C(=O)N[C@@H](CC(C)C)C(=O)N[C@@H]([C@@H](C)O)C(=O)N[C@@H](C)C(=O)N[C@@H](CC(C)C)C(=O)N[C@@H](C)C(=O)NCC(=O)N4)NC(=O)[C@H](C(C)C)NC(=O)[C@H](CCCCN)NC(=O)[C@H](CC(N)=O)NC(=O)[C@H](CCCCN)NC3=O)C(=O)NCC(=O)N[C@@H](CCC(=O)O)C(=O)N[C@@H](CO)C(=O)N2 [E5] (cyclo(AGCKCKNKVCYNKIPCGESCVYIGCTLTAL); disulfide 3-16, 5-20, 10-25 (inferred); ring closure inferred)
average percent (%) insect mortality (Aphis glycines; E5 concentration 6.36 μM (5 μL)): 56.5% | average percent (%) insect mortality (Aphis glycines; E5 concentration 12.73 μM (10 μL)): 80% | average percent (%) insect mortality (Aphis glycines; E5 concentration 31.81 μM (25 μL)): 75% | average percent (%) insect mortality (Aphis glycines; E5 concentration 57.26 μM (45 μL)): 95% | average percent (%) insect mortality (Aphis glycines; E5 concentration 76.35 μM (60 μL)): 100% | average percent (%) insect mortality (Peregrinus maidis; E5 concentration 2.73 μM (5 μL)): 90% | average percent (%) insect mortality (Peregrinus maidis; E5 concentration 4.09 μM (10 μL)): 90% | average percent (%) insect mortality (Peregrinus maidis; E5 concentration 9.97 μM (25 μL)): 95% | average percent (%) insect mortality (Peregrinus maidis; E5 concentration 16.61 μM (45 μL)): 100% | average percent (%) insect mortality (Peregrinus maidis; E5 concentration 33.22 μM (60 μL)): 100%
